This note sets out measurements from patent US5318984A, “Imidazoles for the treatment of atherosclerosis” (priority 1992, dated 1994).

Broadly, the IC50 is the midpoint of a concentration-inhibition curve.

The target in the assay is T1, Acyl-CoA: Cholesterol Acyltransferase (ACAT) (Rattus norvegicus, UniProt Q7TQM4).
T1 construct: Microsomes were obtained by differential centrifugation; from tissue; host or cells: liver microsomes of male Sprague Dawley rats
T1 sequence (Q7TQM4 1-524): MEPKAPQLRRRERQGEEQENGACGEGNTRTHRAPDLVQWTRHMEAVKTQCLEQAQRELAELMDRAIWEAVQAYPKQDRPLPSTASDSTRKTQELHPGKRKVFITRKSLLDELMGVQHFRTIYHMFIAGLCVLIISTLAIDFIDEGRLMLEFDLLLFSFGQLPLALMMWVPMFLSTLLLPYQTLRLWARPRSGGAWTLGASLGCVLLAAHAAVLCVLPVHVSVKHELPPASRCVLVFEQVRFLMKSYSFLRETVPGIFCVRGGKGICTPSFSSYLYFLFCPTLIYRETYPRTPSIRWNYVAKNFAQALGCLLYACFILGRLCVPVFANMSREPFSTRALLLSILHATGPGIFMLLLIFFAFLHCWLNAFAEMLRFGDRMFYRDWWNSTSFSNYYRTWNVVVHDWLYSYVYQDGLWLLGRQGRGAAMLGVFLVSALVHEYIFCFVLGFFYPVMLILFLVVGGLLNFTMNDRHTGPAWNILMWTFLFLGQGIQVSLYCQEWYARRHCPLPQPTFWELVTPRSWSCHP
The assay can be described thus: Inhibition of Acyl-CoA: Cholesterol Acyltransferase (ACAT) in Hepatic Microsomes. In kind it is biochemical, Sprague Dawley rats. Particulars: 14C-oleoyl-CoA, pH 7.4, 37° C., read-out: In Vitro ACAT IC50. The method, then:
A. Assay of the Inhibition of Acyl-CoA: Cholesterol Acyltransferase (ACAT) in Hepatic Microsomes
The ability of the compounds to inhibit ACAT, the enzyme responsible for the intracellular synthesis of cholesteryl esters, was tested as follows. Male Sprague Dawley rats weighing 150-300 g, were fed rat chow ad libitum. The animals were fasted for twenty-four hours prior to being sacrificed by decapitation. The livers were perfused in situ with 50 ml of cold 0.25M sucrose, excised, and homogenized in three volumes of 0.1M phosphate buffer, pH 7.4, that contained 0.5 mM EDTA (ethylenediaminetetraacetic acid), 1.0 mM glutathione, 0.25M sucrose and […]. Microsomes were obtained by differential centrifugation; the supernatant from an initial spin at 15,000×g for 15 minutes was centrifuged at 105,000×g for 1 hour to pellet the microsomes. The microsomes were suspended in homogenization buffer, reisolated by centrifugation, and stored at -70° C. Microsomes were used within one month of preparation.
The control assay in a final volume of 200 μl consisted of 200 μg of microsomal protein, 75 μM ^14 C-oleoyl-CoA (10,000 dpm/nmol) in 0.1M phosphate, pH 7.4, that contained 1 mM glutathione. Compounds were added in 5 μl of DMSO (dimethyl sulfoxide) and additional controls were run with DMSO only. All components, except the oleoyl-CoA, were preincubated for 15 min. at 37° C. prior to the initiation of the reaction by the addition of oleoyl-CoA. The assay was terminated after 10 min by the addition of 4 ml of chloroform:methanol (2:1, v/v). 20,000 dpm of 3H-cholesteryl oleate and 10 μg of unlabeled cholesteryl oleate and oleic acid were added as an internal standard and carriers, respectively. After allowing 10 min. for lipid extraction, the samples were centrifuged at 1,000×g for 10 min. to separate the solvent layers. The chloroform layer containing the neutral lipids was spotted onto a Baker SI250-Pa silica gel TLC plate and the plate developed using a hexane: diethyl ether: acetic acid (170:30:1 v/v/v) mobile phase. The lipids were visualized by their interaction with iodine vapor and the cholesteryl ester spot was scraped into a scintillation vial and counted.
For `CCCCCCCN(CCCCCCCCSc1nc(-c2ccccc2)c(-c2ccccc2)[nH]1)C(=O)Nc1ccc(F)cc1F` [Example 3, N'-(2,4-difluorophenyl)-N-[8-(4,5-diphenyl-1H-imidazol-2-ylthio)octyl]-N-heptylurea], the half-maximal inhibitory concentration (IC50) worked out at 0.008 µM.

Regarding `CCCCCCCN(CCCCCSc1nc(-c2ccccc2)c(-c2ccccc2)n1C)C(=O)Nc1ccc(F)cc1F` [Example 6, N'-(2,4-difluorophenyl)-N-heptyl-N-[5-(1-methyl-4,5-diphenyl-1H-imidazol-2-ylthio]pentyl]urea], the half-inhibitory concentration (IC50) stood at 3.6 µM. For the compound `CCCCCCCN(CCCCCSc1nc(-c2ccccc2)c(-c2ccccc2)[nH]1)C(=O)NCCC` [Example 8, N-[5-(4,5-diphenyl-1H-imidazol-2-ylthio)pentyl]-N-heptyl-N'-propylurea], the IC50 turned out to be 0.01 µM. The result for `CCCCCCCN(CCCCCSc1nc(-c2ccccc2)c(-c2ccccc2)[nH]1)C(=O)NC1CCCCC1` [Example 94, N'-cyclohexyl-N-[5-(4,5-diphenyl-1H-imidazol-2-ylthio)pentyl]-N-heptylurea] reads 0.01 µM; that for `CCCCCCCN(CCCCCSc1nc(-c2ccccc2)c(-c2ccccc2)[nH]1)C(=O)NC(C)C` [Example 105, N-[5-(4,5-diphenyl-1H-imidazol-2-ylthio)pentyl]-N-heptyl-N'-(1-methylethyl)urea], 0.02 µM. Regarding `CCCCCCCN(CCSc1nc(-c2ccccc2)c(-c2ccccc2)[nH]1)C(=O)Nc1ccc(F)cc1F` [Example 189, N'-(2,4-difluorophenyl)-N-[2-(4,5-diphenyl-1H-imidazol-2-ylthio)ethyl]-N-heptylurea], the half-maximal inhibitory concentration (IC50) was determined as 0.07 µM. For the compound `CCCN(CCCCCSc1nc(-c2ccccc2)c(-c2ccccc2)[nH]1)C(=O)Nc1ccc(F)cc1F` [Example 190], the half-maximal inhibitory concentration (IC50) came to 0.03 µM. Take `CCCCCCCN(CCCCCSc1nc(-c2ccccc2)c(-c2ccccc2)[nH]1)C(=O)Nc1ccc(-c2ccccc2)cc1` [Example 192, N'-[(1,1'-biphenyl)-4-yl]-N-[5-(4,5-diphenyl-b 1H-imidazol-2-ylthio)pentyl]-N-heptylurea]: the IC50 was 0.07 µM. The result for `CCCCCCCCNC(=O)N(CCCCCSc1nc(-c2ccccc2)c(-c2ccccc2)[nH]1)c1ccc(F)cc1F` [Example 206, N-(2,4-difluorophenyl)-N-[5-(4,5-diphenyl-1H-imidazol-2-ylthio)pentyl]-N'-octylurea] reads 0.04 µM; that for `CCCCCCCCNC(=O)N(CCCCCSc1nc(-c2ccccc2)c(-c2ccccc2)[nH]1)c1c(F)cc(F)cc1F` [Example 208], 0.02 µM; that for `CC(C)NC(=O)N(CCCCCSc1nc(-c2ccccc2)c(-c2ccccc2)[nH]1)c1ccccc1` [Example 261], 0.08 µM. Regarding `CC(C)NC(=O)N(CCCCCSc1nc(-c2ccccc2)c(-c2ccccc2)[nH]1)c1ccc(F)cc1F` [Example 263], the half-maximal inhibitory concentration (IC50) worked out at 0.04 µM. Under `CCCCCCCN(CCCCCSc1nc(-c2ccccc2)c(-c2ccccc2)[nH]1)C(=O)Nc1c(C(C)C)cccc1C(C)C` [Example 266] stands 0.23 µM; under `CCCCCCCN(CCCCCSc1nc(-c2ccccc2)c(-c2ccccc2)[nH]1)C(=S)Nc1ccc(F)cc1F` [Example 276, N'-(2,4-difluorophenyl]-N-[5-(4,5-diphenyl-1H-imidazol-2-ylthio)pentyl]-N-heptylthiourea], 0.058 µM. As to `CCCCCCCN(CCCCC[S+]([O-])c1nc(-c2ccccc2)c(-c2ccccc2)[nH]1)C(=O)Nc1ccc(F)cc1F` (stereo not drawn) [Example 278, N'-(2,4-difluorophenyl)-N-[5-(4,5-diphenyl-1H-imidazol-2-ylsulfinyl)pentyl]-N-heptylurea], the IC50 was 0.008 µM. The result for `CCCCCCCN(CCCCCS(=O)(=O)c1nc(-c2ccccc2)c(-c2ccccc2)[nH]1)C(=O)Nc1ccc(F)cc1F` [Example 281, N'-(2,4-difluorophenyl)-N-[5-[(4,5-diphenyl-1H-imidazol-2-yl)sulfonyl]pentyl]-N-heptylurea] reads 0.016 µM; that for `CCCCCCCN(CCCCCSc1nc(-c2ccccc2)c(-c2ccccc2)[nH]1)C(=S)Nc1c(F)cc(F)cc1F` [Example 298, N-[5-(4,5-diphenyl-1H-imidazol-2-ylthio)pentyl]N-heptyl-N'-(2,4,6-trifluorophenyl)thiourea], 0.03 µM. `CCCCCCCN(CCCCCNc1nc(-c2ccccc2)c(-c2ccccc2)[nH]1)C(=O)Nc1ccc(F)cc1F` [Example 338, N' -(2,4-difluorophenyl)-N-[5-(4,5-diphenyl-1H-imidazol-2-ylamino)pentyl]-N-heptylurea]: the IC50 was found to be 3.5 µM.

On to `CCCCCCCN(CCCCCCc1nc(-c2ccccc2)c(-c2ccccc2)[nH]1)C(=O)Nc1ccc(F)cc1F` [Example 339, N'-(2,4-difluorophenyl)-N-[6-(4,5-diphenyl-1H-imidazol-2-yl)hexyl]-N-heptylurea], for which the IC50 turned out to be 0.28 µM. For the compound `CCCCCCCN(CCCCCSc1nc(-c2ccccc2)c(-c2ccccc2)[nH]1)C(=O)Cc1ccc(F)cc1F` [Example 340, 2,4-difluoro-N-[(5-(4,5-diphenyl-1H-imidazol-2-ylthio)pentyl)]-N-heptylbenzeneacetamide], the IC50 was 0.025 µM. In the case of `CCCCCCCN(CCCCCSc1nc(-c2ccccc2)c(-c2ccccc2)[nH]1)C(=O)Cc1ccc(-c2ccccc2)cc1` [Example 343, N-[5-(4,5-diphenyl-1H-imidazol-2-ylthio)pentyl]-N-heptyl[1,1'-biphenyl]-4-acetamide], the IC50 came out at 0.16 µM. The result for `CCCCCCCN(CCCCCSc1nc(-c2ccccc2)c(-c2ccccc2)[nH]1)C(=O)CC1CCCCC1` [Example 344] reads 0.03 µM; that for `CCCCCCCN(CCCCCSc1nc(-c2ccccc2)c(-c2ccccc2)[nH]1)C(=O)c1ccc(F)cc1F` [Example 345], 0.06 µM; that for `CCCCCCCN(CCCCCSc1nc(-c2ccccc2)c(-c2ccccc2)[nH]1)C(=O)c1ccccc1` [Example 346], 0.05 µM.

In the case of `CCCCCCCN(CCCCCSc1nc(-c2ccccc2)c(-c2ccccc2)[nH]1)C(=O)OC1CCCCC1` [Example 401, cyclohexyl [5-(4,5-diphenyl-1H-imidazol-2-ylthio)pentyl]heptylcarbamate], the IC50 worked out at 0.05 µM. Take `CCCCCCCN(CCCCCSc1nc(-c2ccccc2)c(-c2ccccc2)[nH]1)C(=O)Oc1ccccc1` [Example 402, Phenyl [5-(4,5-diphenyl-1H-imidazol-2-ylthio)pentyl]heptylcarbamate]: the IC50 is 0.02 µM. As to `CCCCCCCN(CCCCCSc1nc(-c2ccccc2)c(-c2ccccc2)[nH]1)C(=N)Nc1ccccc1` [Example 499, N-[5-(4,5-diphenyl-1H-imidazol-2-ylthio)pentyl]-N-heptyl-N'-phenylguanidin], the IC50 came out at 3.16 µM.
